# PMC3923778 (PLoS Currents, 2014)
# “Also recorded” adds a separate entry of the source.
# Tested on: R6/2 hippocampal slices
# Assay: Electrophysiological evaluation in R6/2 hippocampal slices (MEA, fEPSP)
# Design: species or system mouse
# Experimental: Electrophysiology was conducted at Neuroservice SARL, France. All animals were group housed under environmentaly enriched conditions and used in accordance with European legislations for animal care. On the day of recording, 7-8 week old R6/2 or wild type littermate (WT) mice were decapitated without anaesthesia followed by rapid brain removal into ice-cold oxygenated buffer (in mM; saccharose, 250, KCl 2, NaH2PO4 1.2, MgCl2 7, CaCl2 0.5, NaHCO3 26, glucose 11). Hippocampal slices (350 μm thickness) were prepared with a MacIlwain tissue-chopper and incubated at room temperature (RT, 18 – 22 °C) and allowed to recover for at least 1 h prior to recording in oxygenated Artificial Cerebro-Spinal Fluid (ACSF) of the following composition: (in mM; NaCl, 126, KCl 3.5, NaH2PO4 1.2, MgCl2 1.3, CaCl2 2, NaHCO3 25, D-glucose 11, pH 7.2). For experiments, individual slices were transferred to a 3-dimensional 60 electrode MEA chip (Ayanda Biosystems, Lausanne, Switzerland) and continuously perfused with oxygenated (95% O2–5% CO2) ACSF at 37 °C at a rate of 3 mlmin^-1, allowing for complete solution exchange within the MEA chamber 20 s following solution switches (MEA chamber volume: ~1 mL).
# For stimulation, one MEA electrode underlying the Schaeffer collaterals at the CA3/CA1 interface was chosen visually as the stimulating electrode. The stimulus consisted of a monopolar biphasic current pulse (negative for 60 μs and then positive for 60 μs) applied at a frequency of 0.03 Hz. Recordings of resultant field excitatory postsynaptic potentials (fEPSPs) from electrodes underlying the CA1 region were made using MultiChannel Systems MCS GmbH software (MC Stim, MS Rack) and hardware composed of a 4-channel stimulus generator and a 60-channel amplifier head-stage connected to a 60-channel A/D card (Reutlingen, Germany). […] Paired pulse facilitation (PPF) was then assessed at 40 % of the maximal fEPSP amplitude response (as defined from the I/O curve) by delivering two pulses to the stimulating electrode with decreasing inter-stimulus intervals (ISI of 300 ms, 200 ms, 100 ms, 50 ms, 25 ms). PPF was performed 4 times per slice, and the resultant 4 fEPSP amplitudes at a given ISI were averaged together. […]
# For measurement of long term potentiation (LTP), basal fEPSPs were recorded at 0.03 Hz for ten minutes at 40 % of maximal FEPSP amplitude to verify the baseline stability. […] Potentiation of fEPSP amplitude was then monitored for an additional 60 minute period. […]
# For each slice, the fEPSP values at each electrode recorded within the CA1 region were averaged to obtain a single fEPSP value per slice per timepoint. […] Data was analysed using Repeat Measure Two-way ANOVA followed by a post hoc Bonferroni test to analyse statistical significance of single data points using Prism 5.0 software. […]
structure (smiles),measurement,setting,value
"CN1C(=O)c2nc(Cc3ccc(C(F)(F)F)cc3)[nH]c2N2C1=N[C@H]1CCC[C@H]12 [SCH-51866, (+)-cis-5,6a,7,8,9,9a-hexahydro-2-[4-[trifluro-methyl]phenylmethyl]-5-methyl-cylopent[4,5]imidazo [2,1-b]purin-4(3H)one]",basal synaptic transmission (input/output characteristics),"3 µM, R6/2 slices",no significant effect; also recorded: did not significantly reduce
same,paired pulse facilitation (PPF),"3 µM, R6/2 slices",restored R6/2 paired-pulse facilitation (PPF) to WT levels; also recorded: significantly restored to WT levels
same,long-term potentiation (LTP),"3 µM, R6/2 slices, vs ACSF alone",did not restore the deficit; also recorded: did not result in an amplitude of LTP significantly different
same,"electrophysiological parameters in hippocampal slices, overall",concentration sufficient to fully inhibit the PDE1 enzyme,does not improve
